Reference: patent US20100003217A1, “Compounds and Pharmaceutical Compositions for the Treatment of Viral Infections” (priority 2008, published 2010)
Where “and” joins values, the source holds several entries; their conditions need not be identical. Identical values can stand only once.

Key:
[1] = tested on: human primary hepatocytes; test: Metabolic disposition of [^14C]-Compound 1 and [^14C]-2′-C-methyl guanosine in human primary hepatocytes (incubation medium, cellular extracts, nucleotide levels); format: in vitro ADME; details: for Major metabolites observed in cellular extracts (% of total radioactivity): human hepatocytes Hu775, 1 μM [^14C]-2′-C-methyl guanosine
Method in brief: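 Radio-HPLC and liquid scintillation counting quantified metabolites in incubation medium and in 70% methanol cell extracts. Samples came from cultured rat, monkey or human primary hepatocytes exposed at 37° C to 1 or 10 μM [^14C]-compound or [^14C]-2′-C-methyl guanosine, sampled at 1–24 hours. Phosphates were confirmed by phosphatase digestion to the nucleoside.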

[2] = tested on: monkey primary hepatocytes; test: Metabolic disposition of [^14C]-Compound 1 and [^14C]-2′-C-methyl guanosine in monkey primary hepatocytes (incubation medium, cellular extracts, nucleotide levels); format: in vitro ADME, Cynomolgus monkey; details: for Major metabolites observed in cellular extracts (% of total radioactivity): 10 μM [^14C]-2′-C-methyl guanosine
Method in brief: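 Rat, monkey or human primary hepatocytes on collagen I plates (1.6 million cells/mL) were incubated at 37° C with 1 or 10 μM C-8 [^14C]-labelled compound or 2′-C-methyl guanosine for 1, 4, 8 and 24 hours. Medium and 70% methanol cell extracts were analysed by LSC and radio-HPLC. Nucleotides were identified by alkaline phosphatase treatment and retention-time matching to standards.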

[3] = human hepatocytes (Hu775), 1 μM [^14C]-Compound 1, 1 h
[4] = human hepatocytes (Hu775), 1 μM [^14C]-Compound 1, 8 h
[5] = human hepatocytes (Hu775), 1 μM [^14C]-Compound 1, 24 h

C[C@@]1(O)[C@H](O)[C@@H](CO)O[C@H]1n1cnc2c(=O)[nH]c(N)nc21 [2′-C-methyl guanosine, 9-(2-C-methyl-β-D-ribofuranosyl)guanine, reference compound]
metabolites observed in cellular extracts (% of total radioactivity) ([1]; human hepatocytes (Hu759, Hu775), 10 μM [^14C]-2′-C-methyl guanosine, 1 h): 97.1% and 94.9%
metabolites observed in cellular extracts (% of total radioactivity) ([1]; human hepatocytes (Hu759, Hu775), 10 μM [^14C]-2′-C-methyl guanosine, 4 h): 87.3% and 77.3%
metabolites observed in cellular extracts (% of total radioactivity) ([1]; human hepatocytes (Hu759, Hu775), 10 μM [^14C]-2′-C-methyl guanosine, 8 h): 73.9% and 61.4%
metabolites observed in cellular extracts (% of total radioactivity) ([1]; human hepatocytes (Hu759, Hu775), 10 μM [^14C]-2′-C-methyl guanosine, 24 h): 52.4% and 40.2%
metabolites observed in cellular extracts (% of total radioactivity) ([1]; human hepatocytes (Hu759, Hu775), 10 μM [^14C]-Compound 1, 1 h): 3.69% and 3.75%
metabolites observed in cellular extracts (% of total radioactivity) ([1]; human hepatocytes (Hu759, Hu775), 10 μM [^14C]-Compound 1, 4 h): 4.20% and 3.10%
metabolites observed in cellular extracts (% of total radioactivity) ([1]; human hepatocytes (Hu759, Hu775), 10 μM [^14C]-Compound 1, 8 h): 7.52% and 5.89%
metabolites observed in cellular extracts (% of total radioactivity) ([1]; human hepatocytes (Hu759, Hu775), 10 μM [^14C]-Compound 1, 24 h): 10.3% and 9.06%
metabolites observed in medium (% of total radioactivity) ([1]; human hepatocytes (Hu775), 1 μM [^14C]-Compound 1, 0 h): BLD^a
metabolites observed in cellular extracts (% of total radioactivity) [1, 3]: BLD^a
metabolites observed in medium (% of total radioactivity) [1, 3]: BLD
metabolites observed in cellular extracts (% of total radioactivity) [1, 4]: 4.34%
metabolites observed in medium (% of total radioactivity) [1, 4]: 9.20% and 9.22%
metabolites observed in cellular extracts (% of total radioactivity) [1, 5]: 9.05%
metabolites observed in medium (% of total radioactivity) [1, 5]: 39% and 38.7%
metabolites observed in medium (% of total radioactivity) ([1]; human hepatocytes (lots Hu759, Hu775), 10 μM [^14C]-Compound 1, 0 h): BLD^b and BLD
metabolites observed in medium (% of total radioactivity) ([1]; human hepatocytes (lots Hu759, Hu775), 10 μM [^14C]-Compound 1, 1 h): BLD and BLD^a
metabolites observed in medium (% of total radioactivity) ([1]; human hepatocytes (lots Hu759, Hu775), 10 μM [^14C]-Compound 1, 4 h): 1.7% and 1.6%
metabolites observed in medium (% of total radioactivity) ([1]; human hepatocytes (lots Hu759, Hu775), 10 μM [^14C]-Compound 1, 8 h): 4.6% and 7%
metabolites observed in medium (% of total radioactivity) ([1]; human hepatocytes (lots Hu759, Hu775), 10 μM [^14C]-Compound 1, 24 h): 22.1% and 29%
Major metabolites observed in cellular extracts (% of total radioactivity) ([1]; 1 h): 94.6 % of total radioactivity
Major metabolites observed in cellular extracts (% of total radioactivity) ([1]; 8 h): 65.8 % of total radioactivity
Major metabolites observed in cellular extracts (% of total radioactivity) ([1]; 24 h): 41.3 % of total radioactivity
metabolites observed in cellular extracts (% of total radioactivity) ([2]; monkey hepatocytes (Cy230, Cy234), 10 μM [^14C]-Compound 1, 1 h): 1.68% and 3.04%
metabolites observed in cellular extracts (% of total radioactivity) ([2]; monkey hepatocytes (Cy230, Cy234), 10 μM [^14C]-Compound 1, 8 h): 0.95% and 2.06%
metabolites observed in cellular extracts (% of total radioactivity) ([2]; monkey hepatocytes (Cy230, Cy234), 10 μM [^14C]-Compound 1, 24 h): 2.31% and 1.25%
metabolites observed in cellular extracts (% of total radioactivity) ([2]; monkey hepatocytes (Cy234), 10 μM [^14C]-Compound 1, 4 h): 1.35%
metabolites observed in medium (% of total radioactivity) ([2]; monkey hepatocytes (lot Cy234), 10 μM [^14C]-Compound 1, 4 h): 6.8%
metabolites observed in medium (% of total radioactivity) ([2]; monkey hepatocytes (lots Cy230, Cy234), 10 μM [^14C]-Compound 1, 0 h): BLD^c and BLD
metabolites observed in medium (% of total radioactivity) ([2]; monkey hepatocytes (lots Cy230, Cy234), 10 μM [^14C]-Compound 1, 8 h): 10.4% and 14.8%
metabolites observed in medium (% of total radioactivity) ([2]; monkey hepatocytes (lots Cy230, Cy234), 10 μM [^14C]-Compound 1, 24 h): 48.8% and 35.6%
Major metabolites observed in cellular extracts (% of total radioactivity) ([2]; monkey hepatocytes Cy230, 1 h): 96.4 % of total radioactivity
Major metabolites observed in cellular extracts (% of total radioactivity) ([2]; monkey hepatocytes Cy230, 8 h): 77.3 % of total radioactivity
Major metabolites observed in cellular extracts (% of total radioactivity) ([2]; monkey hepatocytes Cy230, 24 h): 65.0 % of total radioactivity
Major metabolites observed in cellular extracts (% of total radioactivity) ([2]; monkey hepatocytes Cy234, 1 h): 86.9 % of total radioactivity
Major metabolites observed in cellular extracts (% of total radioactivity) ([2]; monkey hepatocytes Cy234, 4 h): 57.9 % of total radioactivity
Major metabolites observed in cellular extracts (% of total radioactivity) ([2]; monkey hepatocytes Cy234, 8 h): 45.8 % of total radioactivity
Major metabolites observed in cellular extracts (% of total radioactivity) ([2]; monkey hepatocytes Cy234, 24 h): 29.0 % of total radioactivity
